Source: PMC5773577, “Novel Miniature Membrane Active Lipopeptidomimetics against Planktonic and Biofilm Embedded Methicillin-Resistant Staphylococcus aureus” (Scientific Reports, 2018)
Values after ≈ are worked out from the molar mass of the structure shown. Residues, ends and D or L forms follow the SMILES beside them. No end group written: not given here.

Key:
[1] = tested on: MRSA (ATCC 43300); assay: microbe, parasite or virus in culture; assay type: cell-based, Staphylococcus aureus; settings: Staphylococcus aureus, MHB, 2–5 × 10^5 CFU/mL, 16–18 h, 37 °C, OD600, read-out: Minimum inhibitory concentration, MIC
Method: (§1) The antibacterial activity was evaluated as MIC using slight modifications to a serial broth micro dilution method as reported previously[66],[67]. Briefly, to each treatment well of the 96-well plate (Corning Incorporated, USA) 10 μL of peptidomimetic/antibiotic was added and subsequently diluted serial 2-fold in 0.2% BSA (in 0.01% acetic acid). Then to each well of the first 11 columns 100 μL of mid-log phase bacterial suspension in MHB medium was added to get 2–5 × 10^5 CFU/mL. Cultures without test peptidomimetics/antibiotics were used as growth control. Uninoculated MHB medium was used as negative control. The microtitre plates were incubated overnight with agitation (180 rpm) at 37 °C. After 16–18 h incubation, absorbance was read at 600 nm using an ELISA plate reader (Molecular Devices, Sunnyvale, CA, USA). The experiments were carried out in duplicate on at least three different days.

[2] = tested on: S. aureus (ATCC 25923); assay: microbe, parasite or virus in culture; assay type: cell-based, Staphylococcus aureus; settings: 2–5 × 10^5 CFU/mL, 16–18 h, 37 °C
Method: as §1

[3] = tested on: S. aureus (ATCC 29213); assay: microbe, parasite or virus in culture; assay type: cell-based, Staphylococcus aureus; settings: 2–5 × 10^5 CFU/mL, 16–18 h, 37 °C, OD600, duplicate, at least three days
Method: as §1

[4] = tested on: S. aureus (ISP479C); assay: microbe, parasite or virus in culture; assay type: cell-based, Staphylococcus aureus; settings: MHB, 2–5 × 10^5 CFU/mL, 16–18 h, 37 °C
Method: as §1

[5] = tested on: MRSA (ATCC 33591); assay: microbe, parasite or virus in culture; assay type: cell-based, Staphylococcus aureus; settings: MHB, 2–5 × 10^5 CFU/mL, 16–18 h, 37 °C; for Minimum inhibitory concentration, MIC: OD600
Method: as §1

[6] = tested on: Vancomycin-resistant E. faecium (ATCC 700221); assay: microbe, parasite or virus in culture; assay type: cell-based; settings: Enterococcus faecium, ATCC700221, MHB, 2–5 × 10^5 CFU/mL, 16–18 h, 37 °C, read-out: Minimum inhibitory concentration, MIC
Method: as §1

[7] = tested on: E. faecalis (ATCC 29212); assay: microbe, parasite or virus in culture; assay type: cell-based; settings: Enterococcus faecalis, ATCC29212, MHB, 2–5 × 10^5 CFU/mL, 16–18 h, 37 °C, read-out: Minimum inhibitory concentration, MIC
Method: as §1

[8] = tested on: Methicillin-resistant S. epidermidis (ATCC 35984); assay: microbe, parasite or virus in culture; assay type: cell-based, Staphylococcus epidermidis; settings: Staphylococcus epidermidis, ATCC 35984 / MRSE; MRSE ATCC 35984; MHB, 2–5 × 10^5 CFU/mL, 16–18 h, 37 °C, OD600; read-out: Minimum inhibitory concentration, MIC
Method: as §1

[9] = tested on: E. faecium (E-447), clinical isolate of vancomycin-resistant E. faecium; assay: organism not typed; assay type: cell-based, Enterococcus faecium; settings: read-out: Minimum inhibitory concentration, MIC
Method: as §1

[10] = tested on: E. faecium (E-7846), clinical isolate of vancomycin-resistant E. faecium; assay: organism not typed; assay type: cell-based, Enterococcus faecium; settings: read-out: Minimum inhibitory concentration, MIC
Method: as §1

[11] = tested on: MRSA ATCC 33591; assay: Cell viability corresponding to calcein leakage experiment; assay type: cell-based, Staphylococcus aureus; settings: calcein-loaded cells in PBS, 4 × MIC (melittin 10 μM), 2 h incubation
Method: To assess the effect of designed peptidomimetics on membrane integrity of MRSA ATCC 33591 strain a calcein-AM dye release experiment was performed using the protocol described previously with slight modifications[51]. Briefly, exponential phase MRSA ATCC 33591 culture was prepared in MHB medium as mentioned earlier and adjusted to OD600 = 1 (~10^9 CFU/mL) in PBS (10 mM sodium phosphate, 150 mM NaCl, pH 7.4). Thereafter, the cells were incubated at 37 °C with calcein-AM (2 μg/mL) in 10% MHB medium for 2 h. The calcein-loaded cells were washed once and re-suspended in PBS to OD600 = 0.5 (~10^8 CFU/mL). The cells were diluted 100× in PBS to get 3–5 × 10^5 CFU/mL and were incubated with different concentrations of test agents at 37 °C in dark for 2 h. Subsequently, calcein fluorescence was measured via flow cytometry (Becton Dickinson (BD) FACS verse, San Jose, CA) with excitation and emission wavelengths of 488 nm and 530 ± 30 nm, respectively. For each sample, 10,000 cells were acquired. As a positive control, melittin (10 μM) was assayed under identical conditions. The experiment was repeated on two different days and mean ± S.D. is presented here. […]
agar plates. The plates were incubated at 37 °C for 16-18 h and colonies were counted. […]

[12] = tested on: MRSA ATCC 33591; assay: Membrane depolarization assay, DiSC3(5); assay type: cell-based, Staphylococcus aureus; settings: 2 min, DiSC3(5), HEPES-glucose buffer pH 7.2, 37 °C, mean ± S.D., two days
Method: The cytoplasmic membrane depolarization in MRSA ATCC 33591 strain was measured using membrane potential sensitive dye 3,3′-dipropylthiacarbocyanine iodide (DiSC3(5)) with a protocol described previously with slight modifications[23],[48]. Briefly, exponential phase cells grown in MHB were harvested by centrifugation, washed and re-suspended in respiration buffer (5 mM HEPES, 20 mM glucose, pH 7.2) to 2.5 × 10^6 CFU/mL. The cells were divided into 1 mL aliquots and incubated with 3.6 μM of DiSC3(5) (in dark) for 30 min to get steady baseline fluorescence intensity. The dye-loaded cells (800 μL) were then treated with peptidomimetics at respective 1× and 4× MIC concentrations (2–20 μL) and consequent fluorescence increase after 2 min of addition was measured in a Shimadzu RF-5301 PC spectrofluorimeter. As controls IL, melittin and VAN were also assayed under identical conditions. The samples were excited at 622 nm and emission was recorded between 650–700 nm with 3 nm slit width for both excitation and emission. The temperature was maintained at 37 °C throughout the experiment. Depolarization kinetics was measured at 4 × MIC of test agents for 5 min. The experiment was repeated on two different days and for Fig. 3 panel (A) mean ± S.D. data for % depolarization relative to melittin control (10 μM) set as 100% is presented here. For panel (B) representative data is shown here. The viability of dye-loaded cells corresponding to depolarization experiment at 4 × MIC concentration was also measured by plating the diluted aliquots onto BHI agar plates.

[13] = tested on: MRSA ATCC 33591; assay: Membrane permeabilization assay, calcein-AM dye release, flow cytometry; assay type: cell-based, Staphylococcus aureus; settings: PBS, 37 °C, mean ± S.D., two days
Method: To assess the effect of designed peptidomimetics on membrane integrity of MRSA ATCC 33591 strain a calcein-AM dye release experiment was performed using the protocol described previously with slight modifications. Briefly, exponential phase MRSA ATCC 33591 culture was prepared in MHB medium as mentioned earlier and adjusted to OD600 = 1 (~10^9 CFU/mL) in PBS (10 mM sodium phosphate, 150 mM NaCl, pH 7.4). Thereafter, the cells were incubated at 37 °C with calcein-AM (2 μg/mL) in 10% MHB medium for 2 h. The calcein-loaded cells were washed once and re-suspended in PBS to OD600 = 0.5 (~10^8 CFU/mL). […] Subsequently, calcein fluorescence was measured via flow cytometry (Becton Dickinson (BD) FACS verse, San Jose, CA) with excitation and emission wavelengths of 488 nm and 530 ± 30 nm, respectively. For each sample, 10,000 cells were acquired. As a positive control, melittin (10 μM) was assayed under identical conditions. The experiment was repeated on two different days and mean ± S.D. is presented here. Corresponding to leakage a viability assay at 4 × MIC of respective test agents was also performed by incubating samples for 2 h at 37 °C and plating the diluted aliquots on BHI agar plates.

[14] = tested on: mouse red blood cells (RBCs); assay: Hemolysis assay; assay type: cell-based; settings: mouse RBC, up to 250 μg/mL, 1 h, 37 °C, PBS pH 7.4; 0.1% Triton X-100 = 100%; data not shown
Method: For the experiment, a previously defined procedure was used with slight modifications[67],[68]. Briefly, blood was withdrawn from mice on the day of the experiment. After washing red blood cells (RBC) twice with phosphate buffer saline (PBS: 35 mM sodium phosphate, 150 mM NaCl, pH 7.4), a 4% v/v suspension of RBC was prepared in the same buffer. In a 96-well plate, serial two-fold dilutions of desired concentrations of peptidomimetics (in PBS) were prepared (100 μL) in duplicate. To each well 100 μL of 4% v/v RBC suspension was added. The plates were incubated at 37 °C for 1 h. After 1 h, the plates were centrifuged at 1500 rpm for 10 min and 20 μL of the supernatant was transferred to a fresh 96-well plate containing 80 μL PBS. The hemoglobin release was quantified by measuring OD414 in an ELISA plate reader (Molecular Devices, Sunnyvale, CA, USA). Hemoglobin release from 0.1% Triton X-100 treated RBC was set as 100% lysis (Amax) while as negative control RBC suspended in PBS alone was used (APBS). Percentage hemolysis was calculated using the following equation:1 %hemolysis=[(Asample−APBS)/(Amax−APBS)]×100

[15] = tested on: S. aureus (ISP479R); assay type: cell-based, Staphylococcus aureus; settings: MHB, 2–5 × 10^5 CFU/mL, 16–18 h, 37 °C, OD600
Method: as §1

[16] = Staphylococcus aureus, OD600, read-out: Minimum inhibitory concentration, MIC

Question: How did the MIC [1] turn out when `Cc1onc(-c2ccccc2)c1C(=O)N[C@@H]1C(=O)N2[C@@H]1SC(C)(C)[C@@H]2C(=O)O` [OXA, oxacillin] was run?
Answer: Its MIC is 56.8 µg/mL (≈ 141 µM).

Question: What about the MIC ([2]; Staphylococcus aureus, ATCC25923, MHB, OD600, read-out: Minimum inhibitory concentration, MIC) of the same compound?
Answer: Its MIC is < 0.3 µg/mL.

Question: And the MIC ([3]; Staphylococcus aureus, ATCC29213, MHB, read-out: Minimum inhibitory concentration, MIC)?
Answer: Its MIC is < 0.3 µg/mL.

Question: And the MIC [4, 16]?
Answer: Its MIC is 0.3 µg/mL (≈ 0.747 µM).

Question: What about the MIC [5, 16] of the same compound?
Answer: Its MIC is 56.8 µg/mL (≈ 141 µM).

Question: And the MIC [6]?
Answer: Its MIC is > 45.4 µg/mL.

Question: And the MIC [7]?
Answer: Its MIC is 5.6 µg/mL (≈ 13.9 µM).

Question: And the MIC [8]?
Answer: The MIC was > 45.4 µg/mL.

Question: And the MIC [9]?
Answer: The MIC was > 233 µg/mL.

Question: And the MIC [10]?
Answer: Its MIC is > 233 µg/mL.

Question: For “indolicidin (ILPWKWPWWPWRR; ends and bridges not checked; UniProt P33046 131-143, looked up) [naturally occurring Trp-Arg rich CAMP used as control]”, which “log reduction in viability” value [11] is on record?
Answer: Its value is 1.8 log.

Question: And the “% depolarization relative to melittin control (10 μM, set as 100%)” value ([12]; at 4 × MIC)?
Answer: The value was 87.4 ± 5.5%.

Question: And the “% depolarization relative to melittin control (10 μM, set as 100%)” value ([12]; at MIC)?
Answer: The value was 48.3 ± 6.3%.

Question: What about the “Minimum inhibitory concentration, MIC” value [5] of the same compound?
Answer: The value was 3.2 µg/mL.

Question: And the “% calcein leakage” value ([13]; at 4 × MIC, 2 min incubation)?
Answer: Its value is 42.2 ± 27.9%.

Question: What about the “% calcein leakage” value ([13]; at 4 × MIC, 2 h incubation) of the same compound?
Answer: The value was 50.6 ± 23.6%.

Question: What about the “% calcein leakage” value ([13]; at MIC, 2 min incubation) of the same compound?
Answer: The value was 6.2 ± 8.8%.

Question: What about the “% calcein leakage” value ([13]; at MIC, 2 h incubation) of the same compound?
Answer: The value was 2.7 ± 3.9%.

Question: Which results are given for `N=C(N)NCCC[C@H](NC(=O)C(Cc1c(F)c(F)c(F)c(F)c1F)NC(=O)[C@H](CCCNC(=N)N)NC(=O)[C@@H](N)Cc1c[nH]c2ccccc12)C(=O)N[C@@H](Cc1c[nH]c2ccccc12)C(N)=O` (stereo partly drawn) [S-4, Trp-Arg-(F5-Phe propionic acid)-Arg-Trp-CONH2] (HELM PEPTIDE1{W.R.[O=C(C(Cc1c(F)c(F)c(F)c(F)c1F)N[*:1])[*:2]].R.W.[am]}$$$$V2.0)?
Answer: % hemolysis [14]: < 5%; Minimum inhibitory concentration, MIC ([2]; MHB, OD600): 45.4 µg/mL (≈ 48.4 µM); Minimum inhibitory concentration, MIC ([3]; MHB): 45.4 µg/mL (≈ 48.4 µM); Minimum inhibitory concentration, MIC ([4]; OD600): 45.4 µg/mL (≈ 48.4 µM); Minimum inhibitory concentration, MIC [5]: 45.4 µg/mL (≈ 48.4 µM); Minimum inhibitory concentration, MIC [15]: 45.4 µg/mL (≈ 48.4 µM)
